Laboratory results taken from patent US20230234942A1, “COMPOUNDS FOR TREATING HUNTINGTON'S DISEASE” (PTC Therapeutics, Inc., priority 2020, published 2023).

Tested on: Endogenous Huntingtin Protein
Assay: Endogenous Huntingtin Protein Assay (ELISA-based MSD electrochemiluminescence)
Type: cell-based
Procedure, shortened: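 Endogenous huntingtin measured on MSD plates coated with MW1 (polyglutamine-expanded) or MAB2166 capture antibody; lysates bound overnight at 4 °C. Signal developed with #56565 rabbit monoclonal and goat anti-rabbit SULFO-TAG (0.25 µg/mL, 1 h RT each), electrochemiluminescence read on SI 6000.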

[1] = Table 2, MSD plates coated with MW1 (expanded polyglutamine) or MAB2166 capture antibody, "inactive" = result above the detection limit of the assay

Row | Compound | IC50 [1] [nM] | IC50 (Table 3, selected compounds from WO/2019/191229 A1, same MSD assay) [nM]
1 | Cn1nc2cc(-c3ccc(-c4cnc(N5CCN[C@@H](C6CC6)C5)nn4)c(O)c3)cnc2n1 [Cpd 168, 2-{3-[(3S)-3-cyclopropylpiperazin-1-yl]-1,2,4-triazin-6-yl}-5-(2-methyl-2H-[1,2,3]triazolo[4,5-b]pyridin-6-yl)phenol] | 1.7 | 
2 | CC(C)[C@H]1CN(c2ncc(-c3ccc(-c4cn5ncnc5cn4)cc3O)nn2)CCN1 [Cpd 128, 2-{3-[(3S)-3-(propan-2-yl)piperazin-1-yl]-1,2,4-triazin-6-yl}-5-([1,2,4]triazolo[1,5-a]pyrazin-6-yl)phenol] | 26.7 | 
3 | Cc1ncc2cc(-c3ccc(-c4cnc(N5CCN[C@@H](C6CC6)C5)nn4)c(O)c3)ccn12 [Cpd 195, 2-{3-[(3S)-3-cyclopropylpiperazin-1-yl]-1,2,4-triazin-6-yl}-5-(3-methylimidazo[1,5-a]pyridin-7-yl)phenol] | 9.1 | 
4 | Cc1cnc(-c2ccc(-c3cnc(N4CCN[C@@H](C5CC5)C4)nn3)c(O)c2)o1 [Cpd 232, 2-{3-[(3S)-3-cyclopropylpiperazin-1-yl]-1,2,4-triazin-6-yl}-5-(5-methyl-1,3-oxazol-2-yl)phenol] | 147 | 
5 | C[C@@H]1CN(c2ncc(-c3ccc(-c4cnc5nn(C)cc5c4)cc3O)nn2)C[C@H](C)N1 [Cpd 97, 2-{3-[(3R,5S)-3,5-dimethylpiperazin-1-yl]-1,2,4-triazin-6-yl}-5-(2-methyl-2H-pyrazolo[3,4-b]pyridin-5-yl)phenol] | 9.8 | 
6 | Cc1cc2nc(-c3ccc(-c4cnc(N5C[C@@H](C)N[C@@H](C)C5)nn4)c(O)c3)sc2c(C)n1 [Cpd 116, 2-{3-[(3R,5S)-3,5-dimethylpiperazin-1-yl]-1,2,4-triazin-6-yl}-5-(4,6-dimethyl[1,3]thiazolo[5,4-c]pyridin-2-yl)phenol] | 678 | 
7 | CC(C)[C@H]1CN(c2ncc(-c3ccc(-c4ccc5nn(C)cc5c4)cc3O)nn2)CCN1 [Cpd 88, 5-(2-methyl-2H-indazol-5-yl)-2-{3-[(3S)-3-(propan-2-yl)piperazin-1-yl]-1,2,4-triazin-6-yl}phenol] | 6.5 | 
8 | CC(C)[C@H]1CN(c2ncc(-c3ccc(-c4cnsc4)cc3O)nn2)CCN1 [Cpd 250, 2-{3-[(3S)-3-(propan-2-yl)piperazin-1-yl]-1,2,4-triazin-6-yl]-5-(1,2-thiazol-4-yl)phenol] | 140 | 
9 | Oc1cc(-c2c[nH]nc2F)ccc1-c1cnc(N2CCN[C@@H](C3CC3)C2)nn1 [Cpd 1, 2-{3-[(3S)-3-cyclopropylpiperazin-1-yl]-1,2,4-triazin-6-yl}-5-(3-fluoro-1H-pyrazol-4-yl)phenol] | 2.1 | 
10 | Cc1nc2c(C3CC3)nc(-c3ccc(-c4cnc(N5C[C@@H](C)N[C@@H](C)C5)nn4)c(O)c3)cn2n1 [Cpd 109, 5-(8-cyclopropyl-2-methyl[1,2,4]triazolo[1,5-a]pyrazin-6-yl)-2-{3-[(3R,5S)-3,5-dimethylpiperazin-1-yl]-1,2,4-triazin-6-yl}phenol] | 22.1 | 
11 | CC(C)[C@H]1CN(c2ncc(-c3ccc(-c4nnc(C5CC5)o4)cc3O)nn2)CCN1 [Cpd 199, 5-(5-cyclopropyl-1,3,4-oxadiazol-2-yl)-2-{3-[(3S)-3-(propan-2-yl)piperazin-1-yl]-1,2,4-triazin-6-yl}phenol] | 526 | 
12 | C[C@@H]1CN(c2ncc(-c3ccc(-c4cc(F)c5nn(C)cc5c4)cc3O)nn2)C[C@H](C)N1 [Cpd 79, 2-{3-[(3R,5S)-3,5-dimethylpiperazin-1-yl]-1,2,4-triazin-6-yl}-5-(7-fluoro-2-methyl-2H-indazol-5-yl)phenol] | 5.2 | 
13 | C[C@@H]1CN(c2ncc(-c3ccc(-c4ncns4)cc3O)nn2)C[C@H](C2CC2)N1 (single isomer, unassigned) [Cpd 269, 2-{3-[(3S,5R)-3-cyclopropyl-5-methylpiperazin-1-yl]-1,2,4-triazin-6-yl}-5-(1,2,4-thiadiazol-5-yl)phenol or 2-{3-[(3R,5S)-3-cyclopropyl-5-methylpiperazin-1-yl]-1,2,4-triazin-6-yl}-5-(1,2,4-thiadiazol-5-yl)phenol] | 53.9 | 
14 | CC[C@H]1CN(c2ncc(-c3ccc(-c4cnc5nn(C)nc5c4)cc3O)nn2)C[C@@H](C)N1 [Cpd 214, 2-{3-[(3S,5R)-3-ethyl-5-methylpiperazin-1-yl]-1,2,4-triazin-6-yl]-5-(2-methyl-2H-[1,2,3]triazolo[4,5-b]pyridin-6-yl)phenol] | 36.6 | 
15 | COc1cc(-c2cnc(-c3cnc(N4CCN(C)CC4)nn3)c(O)c2)cc2cn(C)nc12 [Cpd 121, 5-(7-methoxy-2-methyl-2H-indazol-5-yl)-2-[3-(4-methylpiperazin-1-yl)-1,2,4-triazin-6-yl]pyridin-3-ol] | 16.1 | 
16 | CCC(C)C1CN(c2ncc(-c3ccc(-c4cn[nH]c4)cc3O)nn2)CCN1 (stereo not shown) [Cpd 33, 2-{3-[3-(butan-2-yl)piperazin-1-yl]-1,2,4-triazin-6-yl}-5-(1H-pyrazol-4-yl)phenol] | 41.4 | 
17 | [2H]C([2H])([2H])Oc1cc(-c2ccc(-c3cnc(N4CCN[C@@H](CC)C4)nn3)c(O)c2)ncn1 [Cpd 133, 2-{3-[(3S)-3-ethylpiperazin-1-yl]-1,2,4-triazin-6-yl}-5-{6-[(^2H3)methyloxy]pyrimidin-4-yl}phenol] | 13 | 

Row | Compound | IC50 [1] [nM] | IC50 (Table 3, selected compounds from WO/2019/191229 A1, same MSD assay) [nM]
18 | Cc1nc2ccc(-c3ccc(-c4cnc(N5C[C@@H](C)N[C@@H](C)C5)nn4)c(O)c3)nn2n1 [Cpd 100, 2-{3-[(3R,5S)-3,5-dimethylpiperazin-1-yl]-1,2,4-triazin-6-yl}-5-(2-methyl[1,2,4]triazolo[1,5-b]pyridazin-6-yl)phenol] | 10.9 | 
19 | Oc1cc(-c2cn[nH]c2)ccc1-c1cnc(N2CCNCC2)nn1 [WO/2019/191229 A1 Cpd 328, reference compound] |  | 106
20 | Cc1cncc(-c2ccc(-c3cnc(N4CCN[C@@H](C(C)C)C4)nn3)c(O)c2)n1 [Cpd 143, 5-(6-methylpyrazin-2-yl)-2-{3-[(3S)-3-(propan-2-yl)piperazin-1-yl]-1,2,4-triazin-6-yl}phenol] | 634 | 
21 | Oc1cc(-c2cn[nH]c2)ccc1-c1cnc(N2CCN3C[C@H](O)C[C@H]3C2)nn1 [Cpd 59, (7R,8aS)-2-{6-[2-hydroxy-4-(1H-pyrazol-4-yl)phenyl]-1,2,4-triazin-3-yl}octahydropyrrolo[1,2-a]pyrazin-7-ol] | 876 | 
22 | CCC1CN(c2ncc(-c3ccc(-c4cn[nH]c4)cc3O)nn2)CCN1 (stereo not shown) [Cpd 24, 2-[3-(3-ethylpiperazin-1-yl)-1,2,4-triazin-6-yl]-5-(1H-pyrazol-4-yl)phenol] | 23.4 | 
23 | C[C@H]1CN(c2ncc(-c3ccc(-c4cn[nH]c4F)cc3O)nn2)C[C@@H](C2CC2)N1 [Cpd 215, 2-{3-[(3R,5S)-3-cyclopropyl-5-methylpiperazin-1-yl]-1,2,4-triazin-6-yl}-5-(5-fluoro-1H-pyrazol-4-yl)phenol] | 114 | 
24 | Cc1nnn2cc(-c3ccc(-c4cnc(N5CCN[C@@H](C6CC6)C5)nn4)c(O)c3)ccc12 [Cpd 193, 2-{3-[(3S)-3-cyclopropylpiperazin-1-yl]-1,2,4-triazin-6-yl}-5-(3-methyl[1,2,3]triazolo[1,5-a]pyridin-6-yl)phenol] | 4.8 | 
25 | CC[C@@H]1CN(c2ncc(-c3ccc(-c4cn[nH]c4)cc3O)nn2)CCN1 [Cpd 48, 2-{3-[(3R)-3-ethylpiperazin-1-yl]-1,2,4-triazin-6-yl}-5-(1H-pyrazol-4-yl)phenol] | 167 | 
26 | Oc1cc(-c2cn3ncnc3cn2)ccc1-c1cnc(N2CCN[C@@H](C3CC3)C2)nn1 [Cpd 130, 2-{3-[(3S)-3-cyclopropylpiperazin-1-yl]-1,2,4-triazin-6-yl}-5-([1,2,4]triazolo[1,5-a]pyrazin-6-yl)phenol] | 12 | 
27 | CC(C)[C@H]1CN(c2ncc(-c3ccc(-c4cnc5nsnc5c4)cc3O)nn2)CCN1 [Cpd 264, 2-{3-[(3S)-3-(propan-2-yl)piperazin-1-yl]-1,2,4-triazin-6-yl}-5-([1,2,5]thiadiazolo[3,4-b]pyridin-6-yl)phenol] | 125 | 
28 | CC(C)[C@H]1CN(c2ncc(-c3ccc(-c4ccc5nccn5c4)cc3O)nn2)CCN1 [Cpd 114, 5-(imidazo[1,2-a]pyridin-6-yl)-2-{3-[(3S)-3-(propan-2-yl)piperazin-1-yl]-1,2,4-triazin-6-yl}phenol] | 54.4 | 
29 | Oc1cc(-c2c[nH]nc2F)ccc1-c1cnc(N2CCN[C@H](C3CC3)C2)nn1 [Cpd 7, 2-{3-[(3R)-3-cyclopropylpiperazin-1-yl]-1,2,4-triazin-6-yl}-5-(3-fluoro-1H-pyrazol-4-yl)phenol] | 6.9 | 
30 | Cc1cc(-c2ccc(-c3cnc(N4CCNC(C(C)C)C4)nn3)c(O)c2)ncn1 (racemic) [Cpd 149, 5-(6-methylpyrimidin-4-yl)-2-{3-[(3RS)-3-(propan-2-yl)piperazin-1-yl]-1,2,4-triazin-6-yl}phenol] | 90.7 | 
31 | CC(C)[C@H]1CN(c2ncc(-c3ccc(-n4ncc5cncnc54)cc3O)nn2)CCN1 [Cpd 162, 2-{3-[(3S)-3-(propan-2-yl)piperazin-1-yl]-1,2,4-triazin-6-yl}-5-(1H-pyrazolo[3,4-d]pyrimidin-1-yl)phenol] | 25.4 | 
32 | Cc1cn2cc(-c3ccc(-c4cnc(N5C[C@@H](C)N[C@@H](C)C5)nn4)c(O)c3)nc(C)c2n1 [Cpd 103, 5-(2,8-dimethylimidazo[1,2-a]pyrazin-6-yl)-2-{3-[(3R,5S)-3,5-dimethylpiperazin-1-yl]-1,2,4-triazin-6-yl}phenol] | 13.4 | 
33 | [2H]C([2H])([2H])n1cc(-c2ccc(-c3cnc(N4CCN[C@@H](C(C)C)C4)nn3)c(O)c2)cn1 [Cpd 47, 5-[1-(Hz)methyl-1H-pyrazol-4-yl]-2-{3-[(3S)-3-(propan-2-yl)piperazin-1-yl]-1,2,4-triazin-6-yl}phenol] | 154 | 
34 | Cc1cnc(-c2ccc(-c3cnc(N4CCN[C@@H](C(C)C)C4)nn3)c(O)c2)cn1 [Cpd 145, 5-(5-methylpyrazin-2-yl)-2-{3-[(3S)-3-(propan-2-yl)piperazin-1-yl]-1,2,4-triazin-6-yl}phenol] | 480 | 
